Among the test systems are 786-0 renal; SF-295 CNS; UACC-257 melanoma; HOP-92 NSCLC; SK-OV-3 ovarian; HCT-15 colon; U251 CNS; NCI-H226 lung; SF-539 CNS; SNB-19 CNS.
What all share (assay): NCI anticancer screen, dose series, 48 h

The record followed here is PubChem BioAssay (NCI).

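Method: 48-hour compound exposure of cells in 96-well plates, five concentrations, linear interpolation of endpoints. At the GI50, growth is halved. TGI denotes the concentration required for complete inhibition of growth.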 Some results are limits rather than exact numbers.

Turning to `Cc1ccc2c(=O)cc(-c3ccc(F)cc3)[nH]c2n1`, the values for the GI50 in the assay on 786-0 renal, in the assay on SF-295 CNS and with U251 CNS were 42.2 µM, 36.8 µM and 37.3 µM, respectively. Moreover, the TGI in the assay with 786-0 renal was more than 100 µM; with SF-295 CNS, more than 100 µM; with UACC-257 melanoma, more than 100 µM; in the assay on HOP-92 NSCLC, 86.5 µM; in the assay on SK-OV-3 ovarian, more than 100 µM; with HCT-15 colon, more than 100 µM. Besides, the TGI in the assay with U251 CNS, with NCI-H226 lung, with SF-539 CNS and with SNB-19 CNS was more than 100 µM throughout.

In the case of `O=C1C=C(Cl)C(=O)C(c2ccc(Cl)cc2)=C1`, the TGI was 38.1 µM in the assay with 786-0 renal; more than 100 µM in the assay with SF-295 CNS; 40.7 µM in the assay with UACC-257 melanoma; 35.7 µM in the assay on HOP-92 NSCLC; more than 100 µM with SK-OV-3 ovarian; 47.5 µM in the assay on HCT-15 colon. Moreover, the TGI with U251 CNS was 30 µM; with NCI-H226 lung, 85.5 µM; in the assay on SF-539 CNS it was 32.4 µM; in the assay on SNB-19 CNS, more than 100 µM.

In the case of `O=C(CC1(O)C(=O)Nc2c(Cl)cc(Cl)cc21)c1ccc(Br)cc1Br` (stereo not drawn), the TGI came to 25.5 µM in the assay on 786-0 renal; 34.9 µM in the assay with SF-295 CNS; 22.9 µM with UACC-257 melanoma; 9.75 µM in the assay with HOP-92 NSCLC; 44.2 µM in the assay with SK-OV-3 ovarian; 22.2 µM in the assay with HCT-15 colon. The TGI was determined as 28.5 µM in the assay on U251 CNS, 34.8 µM in the assay on NCI-H226 lung, 36.5 µM in the assay with SF-539 CNS and 41 µM in the assay on SNB-19 CNS.

Consider `CN/N=C(/Cc1occc(=O)c1O)C(=O)Nc1ccccc1C`, for which the TGI with 786-0 renal, in the assay with SF-295 CNS, with UACC-257 melanoma, with HOP-92 NSCLC, in the assay with SK-OV-3 ovarian and in the assay with HCT-15 colon was more than 100 µM throughout. Besides, the TGI with U251 CNS, in the assay with NCI-H226 lung, with SF-539 CNS and in the assay on SNB-19 CNS was more than 100 µM in each case.

Regarding `c1ccc2cc(-c3cc(-c4cc(-c5ccc6ccccc6c5)on4)no3)ccc2c1`, the TGI in the assay on 786-0 renal, in the assay on SF-295 CNS, with UACC-257 melanoma, in the assay on HOP-92 NSCLC, in the assay on SK-OV-3 ovarian and in the assay with HCT-15 colon was more than 100 µM each time. Besides, the TGI with U251 CNS, in the assay with NCI-H226 lung, in the assay on SF-539 CNS and in the assay on SNB-19 CNS was more than 100 µM in each case.

Take `O=C(O)c1ccccc1[Se][Se]c1ccccc1C(=O)O`: the TGI in the assay on 786-0 renal, with SF-295 CNS, with UACC-257 melanoma, in the assay on HOP-92 NSCLC, with SK-OV-3 ovarian and with HCT-15 colon was more than 100 µM throughout. Further, the TGI with U251 CNS was more than 100 µM; with NCI-H226 lung it was 31.4 µM; in the assay on SF-539 CNS, more than 100 µM; in the assay on SNB-19 CNS, 45 µM.

As for `COc1cc(/C=N/NC(=O)c2ccc(C(F)(F)F)nc2Nc2ccc(Cl)cc2C)ccc1O`, the GI50 in the assay with 786-0 renal is 2.64 µM; in the assay with SF-295 CNS, 1.16 µM; in the assay with UACC-257 melanoma, 3.97 µM; in the assay with HOP-92 NSCLC it was 1.59 µM; with SK-OV-3 ovarian, 3.79 µM; in the assay on HCT-15 colon it was 0.987 µM. The GI50 with U251 CNS was 2.09 µM; with NCI-H226 lung, 1.28 µM; in the assay with SF-539 CNS, 2.12 µM; in the assay with SNB-19 CNS, 3.73 µM. In addition, the TGI with 786-0 renal turned out to be 9.93 µM; in the assay on SF-295 CNS, 3.23 µM; with UACC-257 melanoma, 13.4 µM; in the assay with HOP-92 NSCLC, 7.58 µM; in the assay with SK-OV-3 ovarian, 15.6 µM; with HCT-15 colon, 10.4 µM. The TGI in the assay with U251 CNS was found to be 10.6 µM; in the assay with NCI-H226 lung, 5.01 µM; in the assay on SF-539 CNS, 7.66 µM; with SNB-19 CNS, 14.5 µM.

In the case of `Cn1c2ccccc2c2c(Nc3ccccc3)c3ccccc3nc21`, the GI50 in the assay with 786-0 renal was 17.3 µM; in the assay on SF-295 CNS it was 5.62 µM; with UACC-257 melanoma, 33 µM; with HOP-92 NSCLC it was 13.9 µM; in the assay on SK-OV-3 ovarian, 41 µM; in the assay with HCT-15 colon, 14.1 µM. Besides, the GI50 with U251 CNS is 22.7 µM; in the assay on NCI-H226 lung, 16.4 µM; in the assay with SF-539 CNS, 12.1 µM; in the assay with SNB-19 CNS it was 11.5 µM. Moreover, the TGI was 41.8 µM in the assay on 786-0 renal; 23.8 µM in the assay on SF-295 CNS; more than 100 µM in the assay on UACC-257 melanoma; 56.5 µM with HOP-92 NSCLC; more than 100 µM in the assay on SK-OV-3 ovarian; 60.5 µM in the assay with HCT-15 colon. Moreover, the TGI in the assay with U251 CNS is 71.8 µM; in the assay on NCI-H226 lung it was 46.4 µM; with SF-539 CNS it was 28.6 µM; in the assay on SNB-19 CNS, more than 100 µM.

Regarding `O=CC[C@H]1C(=O)C[C@@H]2CCC[C@@H]21`, the TGI with 786-0 renal, in the assay on SF-295 CNS, in the assay with UACC-257 melanoma, with HOP-92 NSCLC, in the assay with SK-OV-3 ovarian and in the assay with HCT-15 colon was more than 100 µM in each case. Moreover, the TGI with U251 CNS, with NCI-H226 lung, with SF-539 CNS and in the assay with SNB-19 CNS was more than 100 µM in each case.

Consider `NC(=O)c1cccc2cn(-c3ccc([C@@H]4CCCNC4)cc3)nc12`, for which the GI50 in the assay with 786-0 renal was 16.2 µM; in the assay on SF-295 CNS, 4.65 µM; with UACC-257 melanoma, 15.8 µM; with HOP-92 NSCLC, 21.5 µM; in the assay on SK-OV-3 ovarian it was 12.6 µM; with HCT-15 colon, 14.8 µM. The GI50 in the assay with U251 CNS was 12.6 µM; with NCI-H226 lung, 14.4 µM; in the assay on SF-539 CNS, 6.72 µM; in the assay on SNB-19 CNS, 17.1 µM. For the same compound, the TGI turned out to be 33 µM in the assay on 786-0 renal; 18.1 µM in the assay on SF-295 CNS; 30.7 µM in the assay on UACC-257 melanoma; 89.9 µM with HOP-92 NSCLC; 38.2 µM in the assay with SK-OV-3 ovarian; 45.5 µM in the assay on HCT-15 colon. Besides, the TGI in the assay on U251 CNS was 29 µM; in the assay with NCI-H226 lung, 30.1 µM; with SF-539 CNS, 20.4 µM; in the assay on SNB-19 CNS it was more than 92.7 µM.

Consider `O=C(/C=C/c1ccccc1)NC1C=Nc2ccc(Cl)cc2NC1=O` (stereo not drawn), for which the TGI with 786-0 renal is more than 100 µM; in the assay on SF-295 CNS, more than 100 µM; in the assay with UACC-257 melanoma, 87 µM; in the assay on HOP-92 NSCLC, more than 100 µM; in the assay on SK-OV-3 ovarian, more than 100 µM; with HCT-15 colon it was 61 µM. The TGI in the assay with U251 CNS was 79.9 µM; in the assay with NCI-H226 lung, more than 100 µM; with SF-539 CNS, 88.2 µM; with SNB-19 CNS, more than 100 µM.
